Test results from PubChem BioAssay (NCI).
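Results reflect a 48-hour exposure of cells in 96-well plates to compound at five concentrations. GI50 = concentration required for 50% inhibition of growth. The concentration for full growth arrest is given as TGI.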

What was measured:
Experiment in all cases: growth of human tumour cells (NCI), 48 h
SK-MEL-5 melanoma = system: SK-MEL-5 melanoma
HCT-116 colon = system: HCT-116 colon
MDA-MB-435 = system: MDA-MB-435
U251 CNS = system: U251 CNS
UO-31 renal = system: UO-31 renal
SN12C renal = system: SN12C renal
HOP-62 NSCLC = system: HOP-62 NSCLC
SF-539 CNS = system: SF-539 CNS
NCI-H23 lung = system: NCI-H23 lung
HL-60(TB) leukemia = system: HL-60(TB) leukemia

`CC[C@]12C=CCN3CC[C@@]4(c5ccc(OC)cc5N(C)[C@H]4[C@@](O)(C(=O)OC)[C@@H]1OC(=O)CCC(=O)N[C@H](Cc1c[nH]c4ccccc14)C(=O)OC)[C@@H]32` showed a GI50 (SK-MEL-5 melanoma) of 2.54 µM, a TGI (SK-MEL-5 melanoma) of 7.14 µM and a GI50 (HCT-116 colon) of 3.02 µM. The TGI (HCT-116 colon) was greater than 100 µM, the GI50 (MDA-MB-435) was 5.42 µM and the TGI (MDA-MB-435) was 22.5 µM. The GI50 (U251 CNS) was 8.08 µM, the TGI (U251 CNS) was 24.9 µM and the GI50 (UO-31 renal) was 2.97 µM. It also gave a TGI (UO-31 renal) of 13.7 µM, a GI50 (SN12C renal) of 3.68 µM and a TGI (SN12C renal) of 23.9 µM. For the same compound, the GI50 (HOP-62 NSCLC) was 6.32 µM, the TGI (HOP-62 NSCLC) was 24.5 µM and the GI50 (SF-539 CNS) was 2.63 µM. For the same compound, the TGI (SF-539 CNS) was 7.06 µM, the GI50 (NCI-H23 lung) was 13.5 µM and the TGI (NCI-H23 lung) was 54.3 µM.

In the case of `Cc1ccc(/C=C(\C#N)c2ccccc2)cc1`, the TGI (SK-MEL-5 melanoma) is reported as greater than 100 µM, the TGI (HCT-116 colon) is reported as greater than 100 µM and the TGI (U251 CNS) is reported as greater than 100 µM. For the same compound, the TGI (UO-31 renal) was greater than 100 µM, the TGI (SN12C renal) was greater than 100 µM and the TGI (HOP-62 NSCLC) was greater than 100 µM. The TGI (SF-539 CNS) was greater than 100 µM and the TGI (NCI-H23 lung) was greater than 100 µM.

Work on `COc1ccc(C[C@H](N)C(=O)N2C[C@@H](CO)C[C@@H](n3cnc4c(N(C)C)ncnc43)C2)cc1` yielded a TGI (SK-MEL-5 melanoma) greater than 100 µM, a TGI (HCT-116 colon) greater than 100 µM and a TGI (U251 CNS) greater than 100 µM. The TGI (UO-31 renal) was greater than 100 µM, the TGI (HOP-62 NSCLC) was greater than 100 µM and the TGI (SF-539 CNS) was greater than 100 µM. For the same compound, the TGI (NCI-H23 lung) was greater than 100 µM and the TGI (HL-60(TB) leukemia) was greater than 100 µM.

With `O=C(NN1C(=O)CSC12CCCC2)C(O)c1ccccc1` (stereo not given) the GI50 (SK-MEL-5 melanoma) was greater than 100 µM, the TGI (SK-MEL-5 melanoma) was greater than 100 µM and the GI50 (HCT-116 colon) was greater than 100 µM. The TGI (HCT-116 colon) was greater than 100 µM, the GI50 (MDA-MB-435) was greater than 100 µM and the TGI (MDA-MB-435) was greater than 100 µM. It also gave a GI50 (U251 CNS) greater than 100 µM, a TGI (U251 CNS) greater than 100 µM and a GI50 (UO-31 renal) greater than 100 µM. The TGI (UO-31 renal) was greater than 100 µM, the GI50 (SN12C renal) was greater than 100 µM and the TGI (SN12C renal) was greater than 100 µM. For the same compound, the GI50 (HOP-62 NSCLC) was greater than 100 µM, the TGI (HOP-62 NSCLC) was greater than 100 µM and the GI50 (SF-539 CNS) was greater than 100 µM. For the same compound, the TGI (SF-539 CNS) was greater than 100 µM, the GI50 (NCI-H23 lung) was greater than 100 µM and the TGI (NCI-H23 lung) was greater than 100 µM.

Work on `CC(C)CCC(=O)[C@@H](C)[C@H]1[C@@H](OC2OCC(O)C(O)C2NS(C)(=O)=O)C[C@H]2[C@@H]3CC=C4C[C@@H](O)CC[C@]4(C)[C@H]3CC[C@]12C` (stereo not given in full) yielded a GI50 (SK-MEL-5 melanoma) of 1.26 µM, a TGI (SK-MEL-5 melanoma) of 4.51 µM and a GI50 (HCT-116 colon) of 0.715 µM. For the same compound, the TGI (HCT-116 colon) was 5.74 µM, the GI50 (MDA-MB-435) was 0.88 µM and the TGI (MDA-MB-435) was 2.16 µM. For the same compound, the GI50 (U251 CNS) was 0.901 µM, the TGI (U251 CNS) was 7.8 µM and the GI50 (UO-31 renal) was 0.782 µM. It also gave a TGI (UO-31 renal) of 2.12 µM, a GI50 (SN12C renal) of 8.36 µM and a TGI (SN12C renal) greater than 40 µM. It also gave a GI50 (HOP-62 NSCLC) of 1.26 µM, a TGI (HOP-62 NSCLC) of 6.34 µM and a GI50 (SF-539 CNS) of 0.202 µM. For the same compound, the TGI (SF-539 CNS) was 1.11 µM, the GI50 (NCI-H23 lung) was 3.3 µM and the TGI (NCI-H23 lung) was 12.7 µM.

Compound `CC(=N)N(C)O` has a TGI (SK-MEL-5 melanoma) greater than 100 µM, a TGI (HCT-116 colon) greater than 100 µM and a TGI (U251 CNS) greater than 100 µM. The TGI (UO-31 renal) was greater than 100 µM, the TGI (SN12C renal) was greater than 100 µM and the TGI (HOP-62 NSCLC) was greater than 100 µM. It also gave a TGI (SF-539 CNS) greater than 100 µM, a TGI (NCI-H23 lung) greater than 100 µM and a TGI (HL-60(TB) leukemia) greater than 100 µM.

With `N#Cc1cc(NC(=O)c2ccccc2)c(=O)n2c1[nH]c1ccccc12` the TGI (SK-MEL-5 melanoma) was 34.2 µM, the TGI (HCT-116 colon) was greater than 100 µM and the TGI (U251 CNS) was greater than 100 µM. It also gave a TGI (UO-31 renal) of 42.9 µM, a TGI (SN12C renal) greater than 100 µM and a TGI (HOP-62 NSCLC) of 88.1 µM. It also gave a TGI (SF-539 CNS) of 84.4 µM, a TGI (NCI-H23 lung) of 57.7 µM and a TGI (HL-60(TB) leukemia) of 74.6 µM.

With `CC1=C2[C@H](c3ccccc3)C3C=CC2(c2ccccc23)N(C(=O)C(c2ccccc2)c2ccccc2)C1=O` (stereo not given in full) the TGI (SK-MEL-5 melanoma) was greater than 100 µM, the TGI (HCT-116 colon) was greater than 100 µM and the TGI (U251 CNS) was greater than 100 µM. It also gave a TGI (UO-31 renal) greater than 100 µM, a TGI (SN12C renal) greater than 100 µM and a TGI (HOP-62 NSCLC) greater than 100 µM. The TGI (SF-539 CNS) was greater than 100 µM, the TGI (NCI-H23 lung) was greater than 100 µM and the TGI (HL-60(TB) leukemia) was greater than 100 µM.

Work on `CN(C)CCC1(C2=CCCC2)CC/C(=C\c2ccccc2Cl)C1=O` (stereo not given) yielded a TGI (SK-MEL-5 melanoma) of 26.7 µM, a TGI (HCT-116 colon) of 24.6 µM and a TGI (U251 CNS) of 25.5 µM. It also gave a TGI (UO-31 renal) of 20.1 µM, a TGI (SN12C renal) of 26.7 µM and a TGI (SF-539 CNS) of 28.9 µM. For the same compound, the TGI (NCI-H23 lung) was 30 µM and the TGI (HL-60(TB) leukemia) was 19.6 µM.
